Assay results taken from patent US20220125746A1, “METHOD OF PREVENTING OR TREATING TREATMENT-INDUCED GASTROINTESTINAL INJURY” (priority 2019, published 2022).
Counter-ions that a name gives are not always drawn.

Test system: WT mice
Experiment: Survival after total body irradiation
Type: in vivo, mouse
Settings: 9.5 and 15 gray TBI; PUMAi 10 mg/kg 30 min before and after, then daily for 4 days
Method: (FIG. 12A) and (FIG. 12B) Survival of WT mice treated with 3 daily doses of 180 mg/kg/day (A) and 250 mg/kg/day (B) CPT-11, respectively, on days 0, 1, and 2. PUMAi (10 mg/kg) was given 2 hours before each dose of CPT-11 and 20 hours after the final dose. (FIG. 12C) and (FIG. 12D) Survival of WT mice after total body irradiation (TBI) at 9.5 Gy (FIG. 12C) and 15 Gy (FIG. 12D). PUMAi (10 mg/kg) was given 30 min before and 30 min after TBI, and then daily for 4 days. Survivors at 9.5 Gy TBI in C were sacrificed on day 40 with no obvious health problems. P values were calculated by log-rank test.

OCCN1CCN(CC(O)COc2ccc3ccccc3c2)CC1 (stereo not shown) [PUMAi, 1-[4-(2-hydroxyethyl)-1-piperazinyl]-3-(2-naphthyloxy)-2-propanol dihydrochloride]
survival after total body irradiation: increased the survival
